The numbers were not newly measured in patent US20050244498A1 (priority 2001, published 2005), which cites them from elsewhere.

For this data set the following is noted: in vivo.

As for `CN(C)CC(c1ccc(O)cc1)C1(O)CCCCC1` (centres unmarked) [active metabolite, O-desmethylvenlafaxine], the elimination half-life result is reported as “about 8 hours”.

With `COc1ccc(C(CN(C)C)C2(O)CCCCC2)cc1` (racemic) [venlafaxine, (R/S)-1-[2-(dimethylamino)-1-(4methoxyphenyl)ethyl]cyclohexanol], the elimination half-life result is reported as “about 4 hours”.
